Measurements as given in patent publication US9273057B2 (Bristol-Myers Squibb Company, priority 2012, dated 2016).

Target: CK2A1 (CK2α/β) (Homo sapiens, UniProt P68400)
Experiment: CK2 kinase assay, CK2A1 (CK2α/β)
Format: biochemical
Conditions: Table A; read-out: CK2A1 (CK2α/β) (IC50)

Chain of CK2A1 (CK2α/β) (P68400 whole entry, species assumed): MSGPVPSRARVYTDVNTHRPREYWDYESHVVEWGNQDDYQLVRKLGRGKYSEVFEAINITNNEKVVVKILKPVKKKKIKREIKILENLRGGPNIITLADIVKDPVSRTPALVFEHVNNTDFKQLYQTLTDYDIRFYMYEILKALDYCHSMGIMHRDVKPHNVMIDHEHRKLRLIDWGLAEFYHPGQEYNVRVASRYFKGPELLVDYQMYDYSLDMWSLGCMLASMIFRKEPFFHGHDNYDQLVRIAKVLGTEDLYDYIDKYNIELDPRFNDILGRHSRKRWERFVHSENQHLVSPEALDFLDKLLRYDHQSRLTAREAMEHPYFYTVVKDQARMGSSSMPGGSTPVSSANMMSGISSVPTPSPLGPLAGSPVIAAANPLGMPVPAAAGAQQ
Chain of CK2A1 (CK2α/β) (P67870 whole entry partner, species assumed): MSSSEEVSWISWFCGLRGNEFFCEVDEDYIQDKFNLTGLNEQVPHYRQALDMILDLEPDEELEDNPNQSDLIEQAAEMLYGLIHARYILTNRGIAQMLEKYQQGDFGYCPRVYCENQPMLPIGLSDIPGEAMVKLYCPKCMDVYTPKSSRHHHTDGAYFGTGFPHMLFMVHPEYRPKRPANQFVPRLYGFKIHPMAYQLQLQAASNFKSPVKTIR

Structure (SMILES) | IC50 [nM]
CN1CCN(c2cc(C#N)cc(Nc3nc(NC4CC4)c4ncc(C#N)n4n3)c2Cl)CC1CO (racemic) [Example 698, (+/−)-2-({2-chloro-5-cyano-3-[3-(hydroxymethyl)-4-methylpiperazin-1-yl]phenyl}amino)-4-(cyclopropylamino)imidazo[2,1-f][1,2,4]triazine-7-carbonitrile] | 1.36
CCNc1nc(Nc2cc(C#N)cc(N3C[C@@H](C)[C@@H](NC(=O)OC)C3)c2Cl)nn2c(C#N)cnc12 [Example 335, methyl ((3R,4R)-1-(2-chloro-5-cyano-3-((7-cyano-4-(ethylamino)imidazo[2,1-f][1,2,4]triazin-2-yl)amino)phenyl)-4-methyl-3-pyrrolidinyl)carbamate] | 3.97
CC(C)(C)N1CCN(Cc2cc(C#N)cc(Nc3nc(NC4CC4)c4ncc(C#N)n4n3)c2Cl)CC1 [Example 472, 2-((3-[(4-tert-butylpiperazin-1-yl)methyl]-2-chloro-5-cyanophenyl}amino)-4-(cyclopropylamino)imidazo[2,1-f][1,2,4]triazine-7-carbonitrile] | 1.7
CN[C@@H]1CCC[C@H](c2cc(C#N)cc(Nc3nc(NC4CC4)c4ncc(C#N)n4n3)c2Cl)C1 [Example 727, 2-({2-chloro-5-cyano-3-[(1S,3R)-3-(methylamino)cyclohexyl]phenyl}amino)-4-(cyclopropylamino)imidazo [2,1-f][1,2,4]triazine-7-carbonitrile] | 1.23
CS(=O)(=O)N[C@@H]1CCN(c2cc(C#N)cc(Nc3nc(NC4CC4)c4ncc(C#N)n4n3)c2Cl)C[C@H]1O [Example 175, N-((3R,4R)-1-(2-chloro-5-cyano-3-((7-cyano-4-(cyclopropylamino)imidazo[2,1-f][1,2,4]triazin-2-yl)amino)phenyl)-3-hydroxypiperidin-4-yl)methanesulfonamide] | 1.06
N#Cc1cc(Nc2nc(NC3CC3)c3ncc(C#N)n3n2)c(Cl)c(N2CCC[C@@H](NC3COC3)C2)c1 [Example 42, 2-((2-chloro-5-cyano-3-((3R)-3-(3-oxetanylamino)-1-piperidinyl)phenyl)amino)-4-(cyclopropylamino)imidazo [2,1-f][1,2,4]triazine-7-carbonitrile] | 2.58
CC(C)(CO)C(=O)N1CC(N2CCN(c3cc(C#N)cc(Nc4nc(NC5CC5)c5ncc(C#N)n5n4)c3Cl)CC2)C1 [Example 494, 2-[(2-chloro-5-cyano-3-{4-[1-(3-hydroxy-2,2-dimethylpropanoyl)azetidin-3-yl]piperazin-1-yl}phenyl)amino]-4-(cyclopropylamino)imidazo[2,1-f][1,2,4]triazine-7-carbonitrile] | 1.99
COCCN1CCC(c2cc(C#N)cc(Nc3nc(NC4CC4)c4ncc(C#N)n4n3)c2Cl)CC1 [Example 211, 2-(2-chloro-5-cyano-3-(1-(2-methoxyethyl)piperidin-4-yl)phenylamino)-4-(cyclopropylamino)imidazo[1,2-f][1,2,4]triazine-7-carbonitrile] | 0.9
N#Cc1cc(Nc2nc(NC3CC3)c3ncc(C#N)n3n2)c(Cl)c(N2CCC(NC3(CS(=O)(=O)c4ccccc4)COC3)CC2)c1 (racemic) [Example 113, (+/−) 2-((2-chloro-5-cyano-3-(4-((3-((phenylsulfonyl)methyl)-3-oxetanyl)amino)-1-piperidinyl)phenyl)amino)-4-(cyclopropylamino)imidazo [2,1-f][1,2,4]triazine-7-carbonitrile] | 1.01
N#Cc1cc(NCCCO)c(Cl)c(Nc2nc(NC3CC3)c3ncc(C#N)n3n2)c1 [Example 617, 2-((2-chloro-5-cyano-3-((3-hydroxypropyl)amino)phenyl)amino)-4-(cyclopropylamino)imidazo[2,1-f][1,2,4]triazine-7-carbonitrile] | 0.34
N#Cc1cc(CN2CCN(CCO)CC2)c(Cl)c(Nc2nc(NC3CC3)c3ncc(C#N)n3n2)c1 [Example 465, 2-[(2-chloro-5-cyano-3-{[4-(2-hydroxyethyl)piperazin-1-yl]methyl}phenyl)amino]-4-(cyclopropylamino)imidazo[2,1-f][1,2,4]triazine-7-carbonitrile] | 1.66
COC(=O)Nc1cc(Nc2nc(NC3CC3)c3ncc(C#N)n3n2)c(Cl)c(C2CCN(C)CC2)c1 [Example 397, Methyl-4-chloro-3-(7-cyano-4-(cyclopropylamino)imidazo[1,2-f][1,2,4]triazin-2-ylamino)-5-(1-methylpiperidin-4-yl)phenylcarbamate] | 1.8
N#Cc1cc(Nc2nc(NC3CC3)c3ncc(C#N)n3n2)c(Cl)c(N2CCN3CC[C@H](O)[C@H]3C2)c1 (racemic) [Example 438, (+/−)-2-((2-chloro-5-cyano-3-((8R,8aS)-8-hydroxyhexahydropyrrolo[1,2-a]pyrazin-2(1H)-yl)phenyl)amino)-4-(cyclopropylamino)imidazo[2,1-f][1,2,4]triazine-7-carbonitrile] | 0.73
C=CC1(N2CCC(c3cc(C#N)cc(Nc4nc(NC5CC5)c5ncc(C#N)n5n4)c3Cl)CC2)COC1 [Example 379, 2-((2-chloro-5-cyano-3-(1-(3-vinyloxetan-3-yl)piperidin-4-yl)phenyl)amino)-4-(cyclopropylamino)imidazo[2,1-f][1,2,4]triazine-7-carbonitrile] | 2.61
CC(CC(C)c1cc(Cl)c(Nc2nc(NC3CC3)c3ncc(C#N)n3n2)cc1C#N)NCC(F)(F)F (stereo not shown) [Example 732, 2-((2-chloro-5-cyano-4-(4-((2,2,2-trifluoroethyl)amino)pentan-2-yl)phenyl)amino)-4-(cyclopropylamino)imidazo[2,1-f][1,2,4]triazine-7-carbonitrile] | 25.4
C[C@H](O)C(=O)N1CC2(CCN(c3cc(C#N)cc(Nc4nc(NC5CC5)c5ncc(C#N)n5n4)c3Cl)CC2)C1 [Example 795, (S)-2-((2-chloro-5-cyano-3-(2-(2-hydroxypropanoyl)-2,7-diazaspiro[3.5]nonan-7-yl)phenyl)amino)-4-(cyclopropylamino)imidazo[2,1-f][1,2,4]triazine-7-carbonitrile] | 1.12
N#Cc1cc(Nc2nc(NC3CC3)c3ncc(C#N)n3n2)c(Cl)c(N2CCC3C(CCN3C3COC3)C2)c1 (stereo not shown) [Example 444, 2-((2-chloro-5-cyano-3-(1-(oxetan-3-yl)hexahydro-1H-pyrrolo[3,2-c]pyridin-5(6H)-yl)phenyl)amino)-4-(cyclopropylamino)imidazo[2,1-f][1,2,4]triazine-7-carbonitrile] | 0.76
COC(=O)N[C@@H]1CN(c2cc(C#N)cc(Nc3nc(NC4CC4)c4ncc(C#N)n4n3)c2Cl)C[C@@H]1C [Example 293, methyl ((3S,4S)-1-(2-chloro-5-cyano-3-((7-cyano-4-(cyclopropylamino)imidazo[2,1-f][1,2,4]triazin-2-yl)amino)phenyl)-4-methyl-3-pyrrolidinyl)carbamate] | 1.89
N#Cc1cc(Nc2nc(NC3CC3)c3ncc(C#N)n3n2)c(Cl)c(N2CCN(CC3COCCO3)CC2)c1 (stereo not shown) [Example 532, 2-((3-(4-((1,4-dioxan-2-yl)methyl)piperazin-1-yl)-2-chloro-5-cyanophenyl)amino)-4-(cyclopropylamino)imidazo[2,1-f][1,2,4]triazine-7-carbonitrile] | 0.85
